Measurements reported in patent publication US6433022B1, “Spermicide” (Medical Research Council, priority 1997, dated 2002).

Key:
Format in all cases: cell-based
human spermatozoa [1] = assay: Effect of inhibitors on NADPH-induced ROS generation, lucigenin-dependent chemiluminescence; details: for Lucigenin dependent chemiluminescence: Treated, NADPH-induced, means ± SE; for effect on NADPH-dependent reactive oxygen species generation: dicoumarol 100 μM, sodium oxamate 1 mM, allopurinol 10 mM; for effect of mitochondrial electron transport chain inhibitors on response to NADPH: intact spermatozoa; for inhibition of the response to NAD(P)H: triton permeabilized cells
Text: ROS generation was monitored by luminometry employing the chemiluminescence probes lucigenin and luminol. Lucigenin is sensitive to the presence of superoxide anion and was used to monitor the free radical responses to NAD(P)H. Luminol, when used in conjunction with horseradish peroxidase (HRP; Sigma Type Vl, 288 U/mg), detects mainly hydrogen peroxide (Aitken et al., 1992) and was used to monitor the responses of spermatozoa to PMA (phorbol 12-myristate, 13-acetate), an activator of protein kinase C. […] Photon emission was monitored at 37° C. using the Bermold 9505B luminometer (Berthold, Wilbad, Germany) featuring 6 electronically compensated, peltier cooled, photomultipliers and the results expressed as counts/minute. For both of the probes used, 400 μl of spermatozoa, at a concentration of 10×10^6/ml, were placed in a 3 ml plastic, flat-bottomed plastic tube. For luminol-based reactions, the spermatozoa were suspended in BWW supplemented with Albuminar, but when lucigenin was used the Albuminar was replaced with 1 mg/ml polyvinyl alcohol. A 4 μl aliquot of a 25 mM stock solution of either luminol or lucigenin m-dimethyl sulphoxide (DMSO), was then added to the cell suspension, resulting in a final probe concentration of 250 μM. For the measurement of hydrogen peroxide generation by intact cells, luminol-dependent chemiluminescence was enhanced by addition of 8 μl of HRP, freshly prepared at a concentration of 2 mg/ml in PBS, to give a final HRP concentration of 11.52 U/ml. The luminometer results were recorded as continuous traces and as integrated photon counts over a fixed period of time (5 min).
(§1) In all experiments, DPI was added to the spermatozoa before the addition of NADPH or PMA while control incubations were supplemented with DMSO alone. ROS generation was recorded for approximately 10 min to establish a steady state signal and then 45 μl of NADPH (final concentration 500 μM) or 4 μl of PMA (final concentration 100 nM) were added and the responses monitored for around 20 min using lucigenin and luminol-peroxidase based chemiluminescence respectively.
Quinacrine was purchased from Sigma and dissolved in 10% DMSO to give a stock solution of 10 mM. […] The impact of quinacrine on NADPH- and PMA-induced ROS generation was monitored as described above for DPI.

human spermatozoa [2] = assay: Effect of inhibitors on PMA-induced hydrogen peroxide production, luminol-peroxidase chemiluminescence; details: 100 nM PMA
Text: ROS generation was monitored by luminometry employing the chemiluminescence probes lucigenin and luminol. Lucigenin is sensitive to the presence of superoxide anion and was used to monitor the free radical responses to NAD(P)H. Luminol, when used in conjunction with horseradish peroxidase (HRP; Sigma Type Vl, 288 U/mg), detects mainly hydrogen peroxide (Aitken et al., 1992) and was used to monitor the responses of spermatozoa to PMA (phorbol 12-myristate, 13-acetate), an activator of protein kinase C. […] Photon emission was monitored at 37° C. using the Bermold 9505B luminometer (Berthold, Wilbad, Germany) featuring 6 electronically compensated, peltier cooled, photomultipliers and the results expressed as counts/minute. […] The luminometer results were recorded as continuous traces and as integrated photon counts over a fixed period of time (5 min).
as §1, with “respectively. […]” for “respectively.”

human spermatozoa [3] = assay: Nicotinamide dinucleotide-induced superoxide generation, lucigenin-dependent chemiluminescence; details: 500 μM nucleotide
Text: ROS generation was monitored by luminometry employing the chemiluminescence probes lucigenin and luminol. Lucigenin is sensitive to the presence of superoxide anion and was used to monitor the free radical responses to NAD(P)H. Luminol, when used in conjunction with horseradish peroxidase (HRP; Sigma Type Vl, 288 U/mg), detects mainly hydrogen peroxide (Aitken et al., 1992) and was used to monitor the responses of spermatozoa to PMA (phorbol 12-myristate, 13-acetate), an activator of protein kinase C. NAD(P)H could not be used with the luminol-peroxidase system because of the generation of high background signals, presumably due to the oxidase reactions of HRP. Photon emission was monitored at 37° C. using the Bermold 9505B luminometer (Berthold, Wilbad, Germany) featuring 6 electronically compensated, peltier cooled, photomultipliers and the results expressed as counts/minute. For both of the probes used, 400 μl of spermatozoa, at a concentration of 10×10^6/ml, were placed in a 3 ml plastic, flat-bottomed plastic tube. For luminol-based reactions, the spermatozoa were suspended in BWW supplemented with Albuminar, but when lucigenin was used the Albuminar was replaced with 1 mg/ml polyvinyl alcohol. A 4 μl aliquot of a 25 mM stock solution of either luminol or lucigenin m-dimethyl sulphoxide (DMSO), was then added to the cell suspension, resulting in a final probe concentration of 250 μM. For the measurement of hydrogen peroxide generation by intact cells, luminol-dependent chemiluminescence was enhanced by addition of 8 μl of HRP, freshly prepared at a concentration of 2 mg/ml in PBS, to give a final HRP concentration of 11.52 U/ml. The luminometer results were recorded as continuous traces and as integrated photon counts over a fixed period of time (5 min).
The ability of human spermatozoa to generate superoxide anion in response to NADPH was monitored by lucigenin-dependent chemiluminescence and compared with its non-phosphorylated and non-reduced counterparts, i.e. NADH, NADP^+ and NAD^+. In addition, the stimulatory properties of an isomer of NADPH, usually non-active in reductive biosynthesis, were examined. All pyridine nucleotides were made up to the required concentration in PBS immediately prior to use. Stock solutions of the nucleotides were made up at concentrations 10 fold higher than the required final working concentration, to allow for a 10 fold dilution on addition to the suspensions of spermatozoa.

human sperm = assay: Effect of quinones on sperm motility; details: for mean motility score: 50 μM quinone, human sperm
Experimental: Following the preparation of spermatozoa by standard Percoll gradient they were resuspended in homologous seminal plasma to a concentration of 20 million per ml, immediately prior to the beginning of the experiment. 50 μl of the sperm suspension was placed in an eppendorf tube, and the quinone was either added alone or in combination with other reagents, for example, KI, HRP (Horseradish Peroxidase), BHT (butylated hydroxytoluene) etc. depending on the experiment. The volume was made up to 100 μl with BWW/PVA.
The quinone was always the final reagent to be added. […] The sample was gently agitated and 10 μl was placed on a slide and a motility was scored. The aim was to score a motility approximately 20 seconds following the addition of the quinone. There were two controls set up, one motility count taken at the beginning of the experiment (initial control) and one motility count taken at the end of the experiment (final control). The controls consisted of 50 μl of the sperm suspension followed by the addition of 50 μl BWW/PVA. The reason for having two controls was to observe if any changes in sperm motility had occurred simply as a factor of time, i.e. from residing in seminal plasma for a long duration. At all times during the experiment, the spermatozoa were incubated in a hot box at 24° C. All motility experiments were carried out on sperm suspended in seminal plasma unless otherwise stated.

## Oc1ncnc2[nH]ncc12 [Allopurinol, allopurinol]
Human spermatozoa [1]; inhibitor 10 mM
  Lucigenin dependent chemiluminescence: 7.19 ± 1.66 counts/5 min × 104
Human spermatozoa [1]
  effect on NADPH-dependent reactive oxygen species generation: ineffective

## N#CC(C#N)=NNc1cccc(Cl)c1 [CCP, carbonyl cyanide m-chlorophenylhydrazone]
Human spermatozoa [1]; inhibitor 10 μM
  Lucigenin dependent chemiluminescence: 12.61 ± 6.97 counts/5 min × 104
Human spermatozoa [1]
  effect of mitochondrial electron transport chain inhibitors on response to NADPH: none of which were effective

## c1ccc2c(c1)[I+]c1ccccc1-2 [DPI, Diphenylene Iodonium]
Human spermatozoa [1]; 500 μM NADPH, statistically significant at the 1 μM level (P<0.001)
  suppression of NADPH-induced free radical generation: dose-dependent capacity to suppress
Human spermatozoa [2]; dose range 0.01-100 μM
  inhibition of PMA-stimulated hydrogen peroxide production: competent to inhibit

## O=c1oc2ccccc2c(O)c1Cc1c(O)c2ccccc2oc1=O [Dicoumarol, dicoumarol]
Human spermatozoa [1]; inhibitor 100 μM
  Lucigenin dependent chemiluminescence: 5.20 ± 2.10 counts/5 min × 104
Human spermatozoa [1]
  effect on NADPH-dependent reactive oxygen species generation: ineffective

## NC(=O)C1=CN([C@@H]2O[C@H](COP(=O)(O)OP(=O)(O)OC[C@H]3O[C@@H](n4cnc5c(N)ncnc54)[C@H](O)[C@@H]3O)[C@@H](O)[C@H]2O)C=CC1 [NADH]
Human spermatozoa [3]
  lucigenin-dependent chemiluminescent response (superoxide anion generation): approximately one third of that induced by β-NADPH

## NC(=O)c1ccc[n+]([C@@H]2O[C@H](COP(=O)([O-])OP(=O)(O)OC[C@H]3O[C@@H](n4cnc5c(N)ncnc54)[C@H](OP(=O)(O)O)[C@@H]3O)[C@@H](O)[C@H]2O)c1 [NADP^+]
Human spermatozoa [3]
  lucigenin-dependent chemiluminescent response (superoxide anion generation): almost completely without effect

## NC(=O)c1ccc[n+]([C@@H]2O[C@H](COP(=O)([O-])OP(=O)(O)OC[C@H]3O[C@@H](n4cnc5c(N)ncnc54)[C@H](O)[C@@H]3O)[C@@H](O)[C@H]2O)c1 [NAD^+]
Human spermatozoa [3]
  lucigenin-dependent chemiluminescent response (superoxide anion generation): almost completely without effect

## C=C(C)[C@H]1Cc2c(ccc3c2O[C@@H]2COc4cc(OC)c(OC)cc4[C@@H]2C3=O)O1 [Rotenone, rotenone]
Human spermatozoa [1]; inhibitor 10 μM
  Lucigenin dependent chemiluminescence: 9.07 ± 2.26 counts/5 min × 104
Human spermatozoa [1]
  effect of mitochondrial electron transport chain inhibitors on response to NADPH: none of which were effective
  inhibition of the response to NAD(P)H: no inhibition

## NC(=O)C(=O)[O-].[Na+] [Sodium Oxamate, sodium oxamate]
Human spermatozoa [1]; inhibitor 1 mM
  Lucigenin dependent chemiluminescence: 5.20 ± 2.10 counts/5 min × 104
Human spermatozoa [1]
  effect on NADPH-dependent reactive oxygen species generation: ineffective

## [N-]=[N+]=[N-] [Sodium azide, sodium azide]
Human spermatozoa [1]; inhibitor 10 μM
  Lucigenin dependent chemiluminescence: 7.69 ± 1.54 counts/5 min × 104

## O=C1C=CC(=O)c2c(O)cccc21 [juglone]
Human sperm
  mean motility score: 5%
Human sperm; human sperm in seminal plasma, motility scored approximately 20 seconds after addition, read-out: ID50, dose-dependent inhibition of sperm motility
  IC50: ~10 µM

## O=C1C=C(O)C(=O)c2ccccc21 [lawsone]
Human sperm
  mean motility score: 51%

## CC[C@H]1/C=C/C=C/C[C@@H](C)[C@H](O)[C@@](C)(O)C(=O)[C@@H](C)[C@H](O)[C@@H](C)C(=O)[C@@H](C)[C@H](O)[C@@H](C)/C=C/C(=O)O[C@@H]2[C@H](C)[C@H](CC1)O[C@]1(CC[C@H](C)[C@H](C[C@@H](C)O)O1)[C@H]2C [oligomycin]
Human spermatozoa [1]
  inhibition of the response to NAD(P)H: no inhibition

## CC1=CC(=O)c2c(O)cccc2C1=O [plumbagin]
Human sperm
  mean motility score: 54%

## CCN(CC)CCCC(C)Nc1c2ccc(Cl)cc2nc2ccc(OC)cc12 (stereo not shown) [quinacrine]
Human spermatozoa [1]; 500 μM NADPH, concentrations as high as 50 μM, no dose/response relationship
  suppression of NADPH-induced ROS production: 30-40%
Human spermatozoa [2]; doses of 75-100 M
  suppression of responses to PMA: complete loss of activity

## NC(=O)C1=CN([C@H]2O[C@H](COP(=O)(O)OP(=O)(O)OC[C@H]3O[C@@H](n4cnc5c(N)ncnc54)[C@H](OP(=O)(O)O)[C@@H]3O)[C@@H](O)[C@H]2O)C=CC1 [α NADPH]
Human spermatozoa [3]
  lucigenin-dependent chemiluminescent response (superoxide anion generation): lack of response

## antimycin A
Human spermatozoa [1]; inhibitor 50 μM
  Lucigenin dependent chemiluminescence: 10.53 ± 2.49 counts/5 min × 104
Human spermatozoa [1]
  effect of mitochondrial electron transport chain inhibitors on response to NADPH: none of which were effective
  inhibition of the response to NAD(P)H: no inhibition
